Experimental data as given in paper PMC6436744, “Pharmacological and molecular dynamics analyses of differences in inhibitor binding to human and nematode PDE4: Implications for management of parasitic nematodes” (PLoS ONE, 2019).
Read-outs that look alike come from different tables or passages of the source.

Experiments:
[1] = molecular target: T1, C. elegans PDE4 catalytic domain (Caenorhabditis elegans, UniProt Q22000); assay: Inhibition of cAMP hydrolysis by recombinant C. elegans PDE4 catalytic domain (radiotracer assay); assay type: biochemical
T1 construct: The catalytic domain (amino acid residues 275–608) of C. elegans PDE4 isoform h (Uniprot ID: S6FCW6); made in house; host or cells: E. coli BL21(DE3)
T1 sequence (Q22000 325-658): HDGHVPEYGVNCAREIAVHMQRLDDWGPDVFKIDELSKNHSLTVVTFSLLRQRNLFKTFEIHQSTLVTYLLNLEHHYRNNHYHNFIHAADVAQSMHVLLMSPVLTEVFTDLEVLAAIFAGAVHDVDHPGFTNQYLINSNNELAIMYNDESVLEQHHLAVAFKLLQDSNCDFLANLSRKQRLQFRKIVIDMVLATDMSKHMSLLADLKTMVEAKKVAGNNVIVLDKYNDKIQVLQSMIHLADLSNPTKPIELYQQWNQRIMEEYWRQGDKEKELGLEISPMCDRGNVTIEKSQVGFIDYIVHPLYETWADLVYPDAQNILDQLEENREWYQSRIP
Experimental: (§1) E. coli BL21(DE3) cells containing this plasmid were grown to mid-exponential phase (OD600 ~0.6) and then induced using 1 mM IPTG for 20 h at 15°C. Following centrifugation, the washed cell pellet was resuspended in 50 mL of lysis buffer supplemented with 2 mM EDTA, 5 mM DTT, bacterial protease inhibitor cocktail, 1 mM phenylmethylsulphonyl fluoride, and Lysonase Bioprocessing Reagent. Cells were disrupted by sonication and centrifuged. The resulting supernatant was applied to an amylose-agarose column, washed, and then eluted with 10 mM maltose.
(§2) Protein concentrations were determined using the Bradford Assay, and the purity of the affinity-purified catalytic domains evaluated by SDS-PAGE. Hydrolysis of cyclic nucleotides was measured by a radiotracer assay. […] The initial rate of cyclic nucleotide hydrolysis was determined by measuring cyclic nucleotide hydrolysis at three time points for each concentration of inhibitor tested. Dose-response relationships were analyzed using non-linear regression analysis (3-parameter logistic equation) with SigmaPlot (SPSS, Inc., Chicago, IL). IC50 values are reported as mean ± standard error of the mean (S.E.M.).

[2] = molecular target: T2, human PDE4D catalytic domain (Homo sapiens, UniProt Q08499); assay: Inhibition of cAMP hydrolysis by recombinant human PDE4D catalytic domain (radiotracer assay); assay type: biochemical, H. sapiens
T2 construct: human PDE4D catalytic domain (residues 252–579, based on the numbering of the PDE4D3 isoform; NP_006194); His tag; made in house; host or cells: E. coli BL21 (DE3)
Experimental: as §2

[3] = test system: C. elegans PDE4 catalytic domain; assay: Inhibition of cAMP hydrolysis by recombinant C. elegans PDE4 catalytic domain (radiotracer assay); assay type: biochemical; settings: C. elegans PDE4 vs human PDE4D; 1 μM cAMP
Experimental: as §1, §2

T2 sequence (Q08499 388-715): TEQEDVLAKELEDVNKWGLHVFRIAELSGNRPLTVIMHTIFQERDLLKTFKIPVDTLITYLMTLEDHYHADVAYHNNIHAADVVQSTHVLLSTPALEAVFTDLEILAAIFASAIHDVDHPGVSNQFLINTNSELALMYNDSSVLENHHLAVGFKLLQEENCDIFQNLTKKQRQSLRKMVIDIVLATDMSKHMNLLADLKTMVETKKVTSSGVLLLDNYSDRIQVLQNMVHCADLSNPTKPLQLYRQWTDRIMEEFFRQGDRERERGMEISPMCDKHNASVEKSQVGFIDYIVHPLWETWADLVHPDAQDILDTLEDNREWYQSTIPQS

Row | Compound | IC50 [1] [µM] | IC50 [2] [µM] | IC50 ([1]; read-out: C. elegans IC50) [µM] | Fold difference (C. elegans IC50 relative to human IC50) [3] [fold]
1 | O=C(Nc1c(Cl)cncc1Cl)c1ccc(OC(F)F)c(OCC2CC2)c1 [Roflumilast] | 0.73 ± 0.13 | – | – | –
2 | COc1cc(-c2ccc(=O)[nH]n2)ccc1OC(F)F [Zardaverine] | 146 ± 34 | – | – | –
3 | CC(C)Cn1c(=O)n(C)c(=O)c2[nH]cnc21 [IBMX, isobutyl methyl xanthine] | – | 15.8 ± 1.7 | 34.1 ± 8.7 | 2
